Data on six compounds can be found in US20260137700A1, “PHARMACEUTICAL COMBINATION OF PRMT5 INHIBITOR AND DNA DAMAGE-INDUCING SUBSTANCE” (SK Biopharmaceuticals Co., Ltd., priority 2022, published 2026).

Assay [1] concerns glioblastoma. The note with it: glioblastoma chemotherapy; cited from earlier work.
Assay [2] relates to symmetric dimethyl arginine (SDMA). As to the kind of experiment: In vivo target inhibition: SDMA ELISA in tumor samples of the Mia PaCa-2 xenograft mouse model. To be noted: co-administration with 60 mg/kg gemcitabine. How it is done: Quantitative reduction levels of symmetric dimethyl arginine (SDMA) in tumor samples harvested from a subcutaneous xenograft mouse model of Mia PaCa-2 were measured by enzyme-linked immunosorbent assay (ELISA).
Reagents: Bradford solution (catalog no. 500-0006) was purchased from Bio-rad (USA). SDMA antibody (catalog no. 13222s) was purchased from Cell signaling Technology (USA). SmD3 antibody (catalog no. ap12451a) was purchased from Abgent (USA). Secondary antibody (catalog no. ab6721) and TMB substrate (catalog no. ab210902) were purchased from Abcam (UK).
Experimental procedure: Tumor tissue transplanted into mice was extracted, cells were lysed, and quantified with Bradford solution. […] of protein per sample was diluted with carbonate-bicarbonate buffer, dispensed into a 96-well plate, and reacted at room temperature for 2 hours. After washing three times with phosphate-buffered saline (PBST) containing 0.05% Tween-20, 200 μL of PBST containing 5% bovine serum albumin (BSA) (BSA-PBST) was added, and reacted at room temperature for 2 hours. After washing three times with PBST, 100 μL of SDMA antibody and SmD3 antibody were diluted in BSA-PBST, each was dispensed, and reacted overnight at 4° C. After washing three times with PBST on next day, 100 μL of secondary antibody diluted in BSA-PBST was added, and reacted at room temperature for 1 hour. After washing three times with PBST, 100 μL of TMB substrate was added and reacted at room temperature for 10-20 minutes, and 100 μL of 1N sulfuric acid solution was added to terminate the reaction. Then, the degree of SDMA inhibition by the compound was calculated by measuring the absorbance at 450 nm.
(In general: ELISA stands for enzyme-linked immunosorbent assay.)

The subject of assay [3] is cancer cell lines of Table 2 (A549, A549/CR, A549/PR, CAPAN-1, NCI-H1048, MDA-MB-231, Mia PaCa-2, SNU-324, OVCAR3, PA-1, PANC-1, U-87 MG). Put plainly: Cell viability assay (WST) with combination synergy analysis (Bliss score). To be noted: combination with various DNA damage inducers, FIGS. 1 to 25; culture ended on days 7 to 9. The assay is classed as cell-based, human. On the procedure: Most cell lines were obtained from the American Type Culture Collection (ATCC) or the Korean Cell Line Bank (KCLB). Combination experiments in cisplatin-resistant and paclitaxel-resistant cell lines were performed at the Asan Preclinical Evaluation center for cancer therapeutiX of Asan Medical Center, Seoul. All cell lines were maintained in appropriate growth medium for the cell line in 100-pi dishes oRT75 (75 cm2) flasks, cultured at 37° C. with 5% CO2, and passaged every 3-4 days. Growth medium conditions and cell line information are listed in Table 2, and the cells were counted using Countess (Invitrogen) to obtain the number of viable cells. Mutation and HRD status by cell type are described in Table 3.
The next day, compound-87 was diluted 1/2 to 1/4 to a concentration of 20 μM to 0.002 μM and treated at a set concentration range, and the co-administered drug was diluted 1/2 to 1/3 to a concentration of 100 μM to 0.00046 μM and treated at a 1:1 (v/v) ratio. Finally, the treatment ratio of compound-87 and the co-administered substance was between 1:20000 and 1:0.00015, and in clinical practice, compound-87: drug to be co-administered can be treated at a ratio of 1:10000 to 1:0.0001.
PANC-1 (wild-type BRCA1/BRCA2) pancreatic cancer cells were treated with compound-87 at concentrations of […], and E7016, a PARP inhibitor as a co-administered agent at concentration of 0.078, 0.156, 0.313, 0.625, 1.25, 2.5, 5, or 10 μM (FIG. 25). Cell culture was terminated on days 7 to 9, and cell viability and synergistic effect were evaluated for each combination of concentrations.
Cell viability was measured by a colorimetric assay using water-soluble tetrazolium salt (WST). […]
Results are normalized to DMSO-treated groups as 100% and expressed as the percent of viable cells upon compound addition. […]
The synergy of each compound was analyzed using Combenefit software (Cambridge Research UK, Cambridge Institute, University of Cambridge, United Kingdom), and synergy was evaluated by using Blliss (Ref: Di Veroli et al., 2016, Bioinformatics 32(18):2866-2868). […]

In assay [4] the test system is human small cell lung cancer cells NCI-H1048. Put plainly: Subcutaneous xenograft mouse model of NCI-H1048 small cell lung cancer cells, tumor growth inhibition. The note with it: day 23; cisplatin alone, 4 mg/kg intraperitoneally once a week. The assay is classed as in vivo. How it is done:
For in vivo efficacy study in a subcutaneous xenograft mouse model of human small cell lung cancer cells NCI-H1048, co-administration of compound-87 as a PRMT5 inhibitor according to an example of the present invention and cisplatin as an alkylating agent of a chemotherapeutic agent, was performed. To produce a small cell lung cancer xenograft model, 10 million of NCI-H1048 cells were injected subcutaneously into the right flank of female nude mice, and tumor growth was monitored.
To evaluate the anticancer effect, when the tumor volume reached approximately 162 mm^3 on average, the mice were divided into four groups. The all group included a solvent-treated group (Vehicle 1 (Compound-87)+Vehicle 2 (cisplatin) group), a Compound-87 monotherapy group (50 mg/kg), a cisplatin monotherapy group (4 mg/kg), and combination therapy group of Compound-87 and cisplatin. The Compound-87 treatment group was administered orally on a 3-day administration/4-day non-administration schedule, and cisplatin was administered intraperitoneally once a week for 22 days (Day 1-Day 23). All mice were euthanized on Day 22 (Day 23).

The subject of assay [5] is CTG-1932, a human non-small cell lung cancer patient-derived cell line. Put plainly: Subcutaneous xenograft mouse model of patient-derived CTG-1932 non-small cell lung cancer, tumor growth inhibition. The assay is classed as in vivo. To be noted: day 9; paclitaxel 20 mg/kg i.p. once a week, single treatment; significant. How it is done: For in vivo efficacy studies in a subcutaneous xenograft mouse model of CTG-1932, a human non-small cell lung cancer patient-derived cell line, combination therapy of compound-87 as a PRMT5 inhibitor according to one example of the present invention and with paclitaxel as a chemotherapy agent, was performed at Champions Oncology (USA).
To produce a non-small cell lung cancer xenograft model, CTG-1932 tumor stock was grown and harvested from primary mice and then transplanted subcutaneously into the left flank of immunocompromised female mice as a 5×5×5 mm^3 tumor fragment. When the tumor volume reached approximately 150-300 mm^3, the mice were separated into four groups of 10 each. All group consisted of a solvent-treated group (vehicle group), a compound-87 monotherapy group (50 mg/kg, oral administration, 3 days on/4 days off), a paclitaxel monotherapy group (20 mg/kg, intraperitoneal administration once a week), and combination treatment group of compound-87 (50 mg/kg, oral administration, 3 days on/4 days off) and paclitaxel (20 mg/kg, intraperitoneal administration once a week). tumor volume and body weight were measured twice a week.

On to `Cn1nnc2c(C(N)=O)ncn2c1=O` [temozolomide, 3-methyl-4-oxoimidazo[5,1-d][1,2,3,5]tetrazine-8-carboxamide], for which the average survival in assay [1] is given as ≤ 14.5 months.
What is called inhibition is the percentage by which the read-out fell short of the control. As to `CC(=O)N1CCC(Oc2ccc3c(c2)OCCN(C[C@H](O)CN2CCc4ccccc4C2)C3=O)CC1` [Compound-78, 8-[(1-acetyl-4-piperidyl)oxy]-4-[(2R)-3-(3,4-dihydro-1H-isoquinolin-2-yl)-2-hydroxy-propyl]-2,3-dihydro-1,4-benzoxazepin-5-one], the “SDMA amount in tumor samples compared to the vehicle group” value in assay [2] (25 mg/kg) came to 33.5%; in assay [2] (50 mg/kg), 24.9%. The inhibition at 25 mg/kg in assay [2] (Mus musculus, MIA PaCa-2, 25 mg/kg) is 66.5%. For the same compound, the inhibition at 50 mg/kg in assay [2] (Mus musculus, MIA PaCa-2, 50 mg/kg) worked out at 75.1%.
With `O=C1c2ccc(O[C@@H]3CCN(C4COC4)C3)cc2OCCN1C[C@H](O)CN1CCc2ccccc2C1` [Compound-271, 4-[(2R)-3-(3,4-dihydro-1H-isoquinolin-2-yl)-2-hydroxy-propyl]-8-[(3R)-1-(oxetan-3-yl)pyrrolidin-3-yl]oxy-2,3-dihydro-1,4-benzoxazepin-5-one], in assay [3], the “inhibition of cell viability, combination treatment compared to single agent” value is “enhanced inhibition effects of cell viability”.
As for `N.N.[Cl][Pt][Cl]` [cisplatin, azane; dichloroplatinum, reference compound], in assay [4], the “tumor growth inhibition rate” value came out at 62.9%.
As for `CN1CCC(Oc2ccc3c(c2)OC(C)(C)CN(C[C@H](O)CN2CCc4ccccc4C2)C3=O)CC1` [Compound-112, 4-[(2R)-3-(3,4-dihydro-1H-isoquinolin-2-yl)-2-hydroxy-propyl]-2,2-dimethyl-8-[(1-methyl-4-piperidyl)oxy]-3H-1,4-benzoxazepin-5-one], the “inhibition of cell viability, combination treatment compared to single agent” value in assay [3] is recorded as “enhanced inhibition effects of cell viability”.
As for `CC(=O)O[C@H]1C(=O)[C@@]2(C)[C@H]([C@H](OC(=O)c3ccccc3)[C@]3(O)C[C@H](OC(=O)[C@H](O)[C@@H](NC(=O)c4ccccc4)c4ccccc4)C(C)=C1C3(C)C)[C@]1(OC(C)=O)CO[C@@H]1C[C@@H]2O` [paclitaxel, [(1S,2S,3R,4S,7R,9S,10S,12R,15S)-4,12-diacetyloxy-15-[(2R,3S)-3-benzamido-2-hydroxy-3-phenylpropanoyl]oxy-1,9-dihydroxy-10,14,17,17-tetramethyl-11-oxo-6-oxatetracyclo[11.3.1.03,10.04,7]heptadeca-13-en-2-yl]benzoate, reference compound], the “tumor growth inhibition compared to the solvent-treated group” value in assay [5] stood at 75%.
